Data published in patent publication US11040028B2, “Penicinotam derivative, preparation method and use thereof” (OCEAN UNIVERSITY OF CHINA, priority 2017, dated 2021).

Experiments:
Assay type in all cases: cell-based
[1] = system: cardiac fibroblast RAT-iCell-C002; assay: Anti-fibrosis activity test: inhibition of proliferation of cardiac fibroblast RAT-iCell-C002 (CCK-8); conditions: Cardiac fibroblast, 48 h
How it was run: (§1)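 Proliferation read by CCK-8 (2 h, A450) after 48 h compound treatment of cells plated at 2×10^4 cells/mL and allowed 24 h attachment, triplicate per concentration. Inhibition rate derived from absorbance relative to untreated blank, with IC50 fitted; pirfenidone as positive control.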

[2] = system: NF-κB; assay: Immunological activity test: inhibition of NF-κB activity; conditions: initial concentration of 30 μM; a/b isomers given as first/second symbol; read-out: IC50 (μM), inhibitory activity against NF-κB
How it was run: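 IC50 values were derived after initial screening of compounds at 30 μM for NF-κB inhibitory activity, with parthenolide serving as the positive control.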

[3] = system: human lung fibroblasts HFL1; assay: Anti-fibrosis activity test: inhibition of proliferation of human lung fibroblasts HFL1 (CCK-8); conditions: Homo sapiens, HFL1, 48 h
How it was run: as §1

[4] = system: human embryonic lung fibroblast IMR-90; assay: Anti-fibrosis activity test: inhibition of proliferation of human embryonic lung fibroblast IMR-90 (CCK-8)
How it was run: as §1

[5] = system: human dermal fibroblasts CCC-ESF-1; assay: Anti-fibrosis activity test: inhibition of proliferation of human dermal fibroblasts CCC-ESF-1 (CCK-8); conditions: Fibroblast
How it was run: as §1

[6] = system: human fibrosarcoma cells HT-1080; assay: Anti-fibrosis activity test: inhibition of proliferation of human fibrosarcoma cells HT-1080 (CCK-8); conditions: Homo sapiens, HT-1080, 48 h
How it was run: as §1

[7] = system: human hepatic stellate cells LX-2; assay: Anti-fibrosis activity test: inhibition of proliferation of human hepatic stellate cells LX-2 (CCK-8); conditions: Homo sapiens, 48 h
How it was run: as §1

[8] = system: BHK-21 cells; assay: Anti-fibrosis activity test: inhibition of BHK-21 cell proliferation (CCK-8); conditions: Mesocricetus auratus, BHK-21, 48 h
How it was run: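 Read-out: CCK-8 absorbance at 450 nm after 2 h, giving proliferation inhibition (1−Ai/Ao)×100% versus blank control, from which IC50 was derived. Cells had been treated with compounds for 48 h after 24 h adherence at 37° C. Pirfenidone served as positive control.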

[9] = system: mouse macrophages (RAW264.7); assay: Lipopolysaccharide-induced NO secretion in macrophages (Griess); conditions: Mus musculus, RAW264.7, 24 h, RAW264.7, LPS 1 μg/ml, a/b isomers given as first/second symbol, read-out: IC50 (μM), inhibition of lipopolysaccharide-induced NO secretion in macrophages
How it was run: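 Percent inhibition of NO release was measured by Griess absorbance at 548 nm in supernatants. Cells were mouse RAW264.7 macrophages in 10% FBS DMEM, treated with graded compound concentrations and activated by LPS (1 μg/ml) for 24 h.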

[10] = cardiac fibroblast RAT-iCell-C002, CCK-8, 48 hours
[11] = human lung fibroblasts HFL1, CCK-8, 48 hours
[12] = human embryonic lung fibroblast IMR-90, CCK-8, 48 hours
[13] = human dermal fibroblasts CCC-ESF-1, CCK-8, 48 hours
[14] = human fibrosarcoma cells HT-1080, CCK-8, 48 hours
[15] = human hepatic stellate cells LX-2, CCK-8, 48 hours
[16] = CCK-8, 48 hours after administration
[17] = Homo sapiens, IMR-90 cells, 48 h, CCK-8
[18] = Homo sapiens, CCC-ESF-1 cells, 48 h, CCK-8

| IC50 [2] | IC50 [6, 14] | IC50 [9] | IC50 ([6]; HT-1080 cells, 48 h, CCK-8) | Structure (SMILES) | IC50 [1, 10] | IC50 [3, 11] | IC50 [4, 12] | IC50 [5, 13] | IC50 [7, 15] | IC50 [8, 16] | IC50 ([1]; RAT-iCell-C002 cells, CCK-8) | IC50 ([3]; HFL1 cells, 48 h, CCK-8) | IC50 [4, 17] | IC50 [5, 18] | IC50 ([7]; LX-2, 48 h, LX-2 cells, CCK-8) | IC50 ([8]; 48 h, CCK-8) |
| --- | --- | --- | --- | --- | --- | --- | --- | --- | --- | --- | --- | --- | --- | --- | --- | --- |
| 1 to 10 µM | 0.05 to 5 mM | 1 to 10 µM |  | O=C1c2c(n(Cc3cccc(Cl)c3F)c3ccccc3c2=O)-c2cccn21 [Compound 582a, 4-(3-Chloro-2-fluorobenzyl)-9H-pyrrolizino[1,2-b]quinoline-9,10(4H)-dione] | 0.05 to 5 mM | 0.05 to 5 mM | 0.05 to 5 mM | 0.05 to 5 mM | 0.05 to 5 mM | 0.05 to 5 mM |  |  |  |  |  |  |
| 1 to 10 µM | 0.05 to 5 mM | 1 to 10 µM |  | O=C1c2c(nc3ccccc3c2OCc2cccc(Cl)c2)-c2cccn21 [Compound 596b, 9-((3-chlorobenzyl)oxy)-10H-pyrrolizino[1,2-b]quinolin-10-one] | 0.05 to 5 mM | 0.05 to 5 mM | 0.05 to 5 mM | 0.05 to 5 mM | 0.05 to 5 mM | 0.05 to 5 mM |  |  |  |  |  |  |
| 0.001 to 0.1 µM | 0.05 to 5 mM | 0.1 to 1 µM |  | O=C1c2c(n(Cc3ccc(F)cc3Cl)c3ccccc3c2=O)-c2cccn21 [Compound 572a, 4-(2-Chloro-4-fluorobenzyl)-9H-pyrrolizino[1,2-b]quinoline-9,10(4H)-dione] | 0.05 to 5 mM | 0.05 to 5 mM | 0.05 to 5 mM | 0.05 to 5 mM | 0.05 to 5 mM | 0.05 to 5 mM |  |  |  |  |  |  |
| 1 to 10 µM |  | 1 to 10 µM | 0.05 to 5 mM | O=C1c2c(nc3ccccc3c2OCCCN2CCCCC2)-c2cccn21 [Compound 666b, 9-(3-(piperidin-1-yl)propoxy)-10H-pyrrolizino[1,2-b]quinolin-10-one] |  |  |  |  |  |  | 0.05 to 5 mM | 0.05 to 5 mM | 0.05 to 5 mM | 0.05 to 5 mM | 0.05 to 5 mM | 0.05 to 5 mM |
| 1 to 10 µM | 0.05 to 5 mM | 0.1 to 1 µM |  | C#CCn1c2c(c(=O)c3ccccc31)C(=O)n1cccc1-2 [Compound 7a, 4-(Prop-2-yn-1-yl)-9H-pyrrolizino[1,2-b]quinoline-9,10(4H)-dione] | 0.05 to 5 mM | 0.05 to 5 mM | 0.05 to 5 mM | < 0.05 mM | 0.05 to 5 mM | < 0.05 mM |  |  |  |  |  |  |
| 1 to 10 µM | 0.05 to 5 mM | 1 to 10 µM |  | O=C1c2c(nc3cc(OC(F)(F)F)ccc3c2O)-c2cccn21 [Compound 548b, 9-hydroxy-6-trifluoromethoxy-10H-pyrrolizino[1,2-b]quinolin-10-one] | 0.05 to 5 mM | 0.05 to 5 mM | 0.05 to 5 mM | 0.05 to 5 mM | 0.05 to 5 mM | 0.05 to 5 mM |  |  |  |  |  |  |
| 1 to 10 µM |  | 1 to 10 µM | 0.05 to 5 mM | O=C1c2c(nc3ccccc3c2OCCN2CCCCC2)-c2cccn21 [Compound 665b, 9-(2-(piperidin-1-yl)ethoxy)-10H-pyrrolizino[1,2-b]quinolin-10-one] |  |  |  |  |  |  | 0.05 to 5 mM | 0.05 to 5 mM | 0.05 to 5 mM | 0.05 to 5 mM | 0.05 to 5 mM | 0.05 to 5 mM |
| 1 to 10 µM | 0.05 to 5 mM | 10 to 50 µM |  | N#Cc1ccccc1-c1ccc(COc2c3c(nc4ccccc24)-c2cccn2C3=O)cc1 [Compound 648b, 4′-(((10-oxo-10H-pyrrolizino[1,2-b]quinolin-9-yl)oxy)methyl)-[1,1′-biphenyl]-2-carbonitrile] | 0.05 to 5 mM | 0.05 to 5 mM | 0.05 to 5 mM | 0.05 to 5 mM | 0.05 to 5 mM | 0.05 to 5 mM |  |  |  |  |  |  |
| 1 to 10 µM | 0.05 to 5 mM | 1 to 10 µM |  | CS(=O)(=O)n1c2c(c(=O)c3ccccc31)C(=O)n1cccc1-2 [Compound 650a, 4-(Methylsulfonyl)-9H-pyrrolizino[1,2-b]quinoline-9,10(4H)-dione] | 0.05 to 5 mM | 0.05 to 5 mM | 0.05 to 5 mM | 0.05 to 5 mM | 0.05 to 5 mM | < 0.05 mM |  |  |  |  |  |  |
| 1 to 10 µM | 0.05 to 5 mM | 1 to 10 µM |  | O=C1c2c(nc3ccccc3c2OCc2ccc(OC(F)(F)F)cc2)-c2cccn21 [Compound 592b, 9-((4-(trifluoromethoxy)benzyl)oxy)-10H-pyrrolizino[1,2-b]quinolin-10-one] | 0.05 to 5 mM | 0.05 to 5 mM | 0.05 to 5 mM | 0.05 to 5 mM | 0.05 to 5 mM | 0.05 to 5 mM |  |  |  |  |  |  |
| 1 to 10 µM |  | 1 to 10 µM | 0.05 to 5 mM | Cc1ccc(C)c2c(=O)c3c([nH]c12)-c1cccn1C3=O [Compound 772a, 5,8-Dimethyl-9H-pyrrolizino[1,2-b]quinoline-9,10(4H)-dione] |  |  |  |  |  |  | 0.05 to 5 mM | 0.05 to 5 mM | 0.05 to 5 mM | 0.05 to 5 mM | 0.05 to 5 mM | < 0.05 mM |
| 1 to 10 µM | 0.05 to 5 mM | 0.1 to 1 µM |  | O=C1c2c(nc3ccccc3c2OCc2cc(F)ccc2F)-c2cccn21 [Compound 573b, 9-((2,5-difluorobenzyl)oxy)-10H-pyrrolizino[1,2-b]quinolin-10-one] | < 0.05 mM | 0.05 to 5 mM | 0.05 to 5 mM | 0.05 to 5 mM | 0.05 to 5 mM | 0.05 to 5 mM |  |  |  |  |  |  |
| 1 to 10 µM | 0.05 to 5 mM | 1 to 10 µM |  | O=C1c2c(nc3ccccc3c2OCc2cccc(C(F)(F)F)c2)-c2cccn21 [Compound 598b, 9-((3-(trifluoromethyl)benzyl)oxy)-10H-pyrrolizino[1,2-b]quinolin-10-one] | 0.05 to 5 mM | 0.05 to 5 mM | 0.05 to 5 mM | 0.05 to 5 mM | 0.05 to 5 mM | 0.05 to 5 mM |  |  |  |  |  |  |
| 1 to 10 µM | 0.05 to 5 mM | 0.1 to 1 µM |  | O=C1c2c([nH]c3c(C(F)(F)F)cccc3c2=O)-c2cccn21 [Compound 448a, 5-(Trifluoromethyl)-9H-pyrrolizino[1,2-b]quinoline-9,10(4H)-dione] | 0.05 to 5 mM | 0.05 to 5 mM | 0.05 to 5 mM | 0.05 to 5 mM | 0.05 to 5 mM | 0.05 to 5 mM |  |  |  |  |  |  |
| 1 to 10 µM | 0.05 to 5 mM | 1 to 10 µM |  | Cc1ccc(COc2c3c(nc4ccccc24)-c2cccn2C3=O)cc1 [Compound 604b, 9-((4-methylbenzyl)oxy)-10H-pyrrolizino[1,2-b]quinolin-10-one] | 0.05 to 5 mM | 0.05 to 5 mM | 0.05 to 5 mM | 0.05 to 5 mM | 0.05 to 5 mM | 0.05 to 5 mM |  |  |  |  |  |  |
| 0.1 to 1 µM | 0.05 to 5 mM | 1 to 10 µM |  | O=C1c2c(nc3ccc(F)cc3c2OCCc2ccccc2)-c2cccn21 [Compound 141b, 7-Fluoro-9-phenethoxy-10H-pyrrolizino[1,2-b]quinolin-10-one] | 0.05 to 5 mM | 0.05 to 5 mM | 0.05 to 5 mM | 5 to 20 mM | 0.05 to 5 mM | 0.05 to 5 mM |  |  |  |  |  |  |
| 1 to 10 µM | 0.05 to 5 mM | 1 to 10 µM |  | CC(C)(O)COc1c2c(nc3ccccc13)-c1cccn1C2=O [Compound 660b, 9-(2-hydroxy-2-methylpropoxy)-10H-pyrrolizino[1,2-b]quinolin-10-one] | 0.05 to 5 mM | 0.05 to 5 mM | 0.05 to 5 mM | 0.05 to 5 mM | 0.05 to 5 mM | 0.05 to 5 mM |  |  |  |  |  |  |
